Laboratory results reported in patent US6683052B1, “Lipopeptides containing an interferon-γ fragment, and uses thereof in pharmaceutical compositions” (Institut National de la Sante et de la Recherche Medicale …, priority 1998, dated 2004).
Where a SMILES comes first, the peptide text is derived from it. The star is where a group is joined. Palmitoyl = CCCCCCCCCCCCCCCC(=O)*

How the values were obtained:
[1] = Circular dichroism studies; type: physicochemical; details: 2 mM pH 7 phosphate buffer
Procedure: The circular dichroism measurements on the peptides were carried out at 25° C. using a Jobin-Yvon CD-6 machine at controlled temperature. The scans were carried out with a cell 0.1 cm in length in an average time of 5 sec. The wavelength interval measured ranges from 185 to 260 nm at a scanning step speed of 0.5 nm/step. The scans were carried out on the peptides at neutral pH in a 2 mM phosphate buffer with or without the helix-stabilizing reagent trifluoroethanol (TFE). The peptide concentration was adjusted to a concentration of 20 μM, after determination of the exact amount of a 100 μM solution by quantitative amino acid analysis. The average values of 4 repeat scans were expressed as average molar ellipticity per residue (deg. cm^2 dmol.).

murine splenocytes = experiment: Induction of class II CMH molecules (IA^b) on murine splenocytes by lipopeptide fragments (FIG. 12A); type: cell-based, 129 Sv mice; details: for increase in class II CMH molecules (FIG. 12A): murine splenocytes, 24 hours, different concentrations
Procedure: (§1) Fresh splenocytes are obtained from 7-week-old female 129 Sv mice. The COLO 205 human colon carcinoma lines are obtained from the ATCC (American Type Culture Collection). The splenocytes and COLO 205 cells are maintained in RPMI 1640 (Gibco BRL, Courbevoie, France), supplemented with 10% FCS (Gibco BRL), sodium pyruvate (Sigma, St. Louis, USA) and incubated at 37° C. in 5% CO2.
(§2) The cells were stimulated for 24 hours with different concentrations of MuL, L-mIFNγ 113-132, L-mIFNγ 122-132 or MuSL. The murine splenocytes and COLO 205 cells were labelled for the expression of II MHC with 1 μg of anti-mouse IA^b FITC monoclonal antibody (mAb) (Pharmingen, San Diego, USA) and 10 μl of anti-HLA-DR clone TAL.1B5 mouse FITC mAb (Cymbus Biotechnology Ltd, Hants, UK), respectively. A negative control mouse FITC IgG1 (DAKO S. A., Trappes, France) was used as control isotype. The cells were incubated for 1 hour at 4° C. in PBS, 10% FCS and then washed, and the expression of II MHC was analysed by flow cytometry using a Coulter EPILS II cytometer (Coulter, Hialeah, Fla., USA) at a rate of 10,000 events per sample.
(§3) FIG. 12: Induction of class II CMH molecules by human or murine cells stimulated with lipopeptides derived from IFN-γ. The murine splenocytes (A) and the COLO 205 human cell line (B) were incubated for 24 hours with different concentrations of lipopeptides derived from IFN-γ. The cells were labelled with a monoclonal antibody directed against the class II CMH molecules, and analysed by flow cytometry. The ratio between the average fluorescence intensity of the cells treated with the lipopeptides and between the average fluorescence intensity of the untreated cells is indicated on the y-axis. The lipopeptide concentration is indicated in μM on the x-axis; MuL: solid circles; MuSL : hollow circles; L-mIFN 113-132: triangles; L-mIFN 122-132: X.

COLO 205 human cell line = experiment: Induction of HLA-DR on COLO 205 cells by lipopeptide fragments (FIG. 12B); type: cell-based; details: for increase in class II CMH molecules (FIG. 12B): COLO 205, 24 hours, different concentrations
Procedure: as §1, §2, §3

[2] = tested on: murine splenocytes and COLO 205 cells; experiment: Cytotoxicity at high lipopeptide concentrations; type: cell-based
peritoneal cells = experiment: Expression of class II CMH molecules and Fc-γ receptors on peritoneal cells taken from an animal; type: cell-based, Balb/c mouse; details: 50 μM, 24 hours, flow cytometry
Procedure: (§4) Principle: to evaluate the activity of the vectorized agonist on cells taken from an animal and treated in vitro (in order to assess the value of a subsequent in vivo study).
(§5) Procedure. The splenocytes and peritoneal cells taken from an animal (Balb/c mouse) are re-cultured at a rate of 2.5×10^6 splenocytes and […] peritoneal cells per well in 24-well plates (NUNC) stimulated with 50 μM of the different peptides in a final volume of 1 ml. After stimulation for 24 hours, the cells are labelled with the anti IA^d monoclonal antibody described in the preceding paragraph, according to the same protocol. To detect the Fc-γ R, the cells are labelled with 1 μg of a rat anti Fc-γ R monoclonal antibody (Pharmingen, San Diego, USA). Next, the cells are incubated for ½ hour with a rat anti IgG biotinylated polyclonal antibody. The revelation is then carried out with FITC streptavidin used at a dilution of 1:100 (Sigma, St. Louis, USA). The expression of Fc-γ R is determined by flow cytometry.

[3] = tested on: cells taken from mice 129 no longer expressing the alpha chain of the IFN-γ receptor (KO mice); experiment: Involvement of the IFN-γ receptor: IA^d and Fc-γ R on cells of mice lacking the alpha chain of the IFN-γ receptor; type: cell-based; details: stimulation for 24 hours, flow cytometry
Procedure: as §5
(§6) Principle. to confirm that the biological activity observed was effectively associated with a stimulation of the IFN-γ receptor, we repeated the same experiments, in parallel on splenocytes taken from mice 129 (Wild type: WT) and on cells taken from mice 129 no longer expressing the alpha chain of the IFN-γ receptor (KO mice).
(§7) Procedure. The experimental protocol followed is identical to that described in paragraph 2 above.

[4] = tested on: splenocytes taken from mice 129 (Wild type: WT); experiment: Involvement of the IFN-γ receptor: IA^d and Fc-γ R on splenocytes of wild type mice 129; type: cell-based; details: stimulation for 24 hours, flow cytometry
Procedure: as §5, §6, §7

P388D1 = experiment: Induction of class II CMH molecules on P388D1 cell line, flow cytometry; type: cell-based, murine; details: for percentage of class II CMH detected by flow cytometry, P388D1: 50 μM, stimulated for 24 hours
Procedure: (§8) Principle: to check the induction of class II CMH molecules on cell lines (P388D1 and WEHI3: murine myelomonocytes) with the above-mentioned peptides.
(§9) Procedure. The cells are cultured the day before at a rate of 3×10^5 cells per well in 24-well culture plates (NUNC). The following day, the cells are stimulated with the various lipopeptide and peptide constructs at a final concentration of 50 μM in 1 ml of medium. After incubation for 24 hours at 37° C. in an atmosphere saturated with 5% CO2, the cells are recovered and incubated for 1 hour at 4° C. with 3 μg of a biotinylated mouse anti-I-Ad monoclonal antibody (Pharmingen, San Diego, USA). After revelation for 30 minutes with FITC streptavidin used at a dilution of 1:100 (Sigma, St. Louis, USA), the expression of class II molecules is determined by flow cytometry.

splenocytes = experiment: Expression of class II CMH molecules and Fc-γ receptors on splenocytes taken from an animal; type: cell-based, Balb/c mouse; details: 50 μM, 24 hours, flow cytometry
Procedure: as §4, §5

WEHI3 = experiment: Induction of class II CMH molecules on WEHI3 cell line, flow cytometry; type: cell-based, murine; details: 50 μM, stimulated for 24 hours
Procedure: as §8, §9

[5] = tested on: human colon carcinoma cells (COLO 205); experiment: Induction of HLA-DR on COLO 205 cell line, flow cytometry; type: cell-based; details: COLO 205, 50 μM
Procedure: Principle: human colon carcinoma cells (COLO 205) are analysed for their ability to express HLA-DR after having been stimulated with the various peptide constructs.
Procedure. The cell line COLO 205 is cultured at a rate of 3×10^5 cells per well in a 24-well culture plate (NUNC). The following day, the cells are stimulated with the various peptide constructs at a final concentration of 50 μM in 1 ml of medium, and are incubated at 37° C. for 24 hours. The cells are then recovered and labelled using 3 μg of an anti HLA-DR mouse biotinylated monoclonal antibody (clone L243). After revelation with FITC streptavidin, the cells are analysed by flow cytometry.

| Compound | helical (ordered) conformation by CD ([1]; 25% trifluoroethanol) | increase in class II CMH molecules (FIG. 12A) (murine splenocytes) | increase in class II CMH molecules (FIG. 12B) (COLO 205 human cell line) | cytotoxicity [2] | peritoneal cells II CMH (%) (peritoneal cells) | peritoneal cells RFc (%) (peritoneal cells) | KO mice II CMR (%) [3] | KO mice RFc (%) [3] | WT mice II CMH (%) [4] | WT mice RFc (%) [4] | percentage of class II CMH detected by flow cytometry, P388D1 (P388D1) | splenocytes II CMH (%) (splenocytes) | splenocytes RFc (%) (splenocytes) | percentage of class II CMH detected by flow cytometry, WEH1 (WEHI3) | other results |
| --- | --- | --- | --- | --- | --- | --- | --- | --- | --- | --- | --- | --- | --- | --- | --- |
| L-mIFN-γ 122-132: fragment 122-132 of murine IFNγ, carboxamide end, N-terminal Ac-K(Pam) group (Ac-K(Palmitoyl)ESSLRKRKRSR-NH2; SMILES CCCCCCCCCCCCCCCC(=O)NCCCC[C@H](NC(C)=O)C(=O)N[C@@H](CCC(=O)O)C(=O)N[C@@H](CO)C(=O)N[C@@H](CO)C(=O)N[C@@H](CC(C)C)C(=O)N[C@@H](CCCNC(=N)N)C(=O)N[C@@H](CCCCN)C(=O)N[C@@H](CCCNC(=N)N)C(=O)N[C@@H](CCCCN)C(=O)N[C@@H](CCCNC(=N)N)C(=O)N[C@@H](CO)C(=O)N[C@@H](CCCNC(=N)N)C(N)=O) | 50-60% | neither L-mIFN-γ 122-132 nor MuSL are active | neither L-mIFN-γ 122-132 nor MuSL are active |  |  |  |  |  |  |  |  |  |  |  |  |
| CCCCCCCCCCCCCCCC(=O)NCCCC[C@H](NC(C)=O)C(=O)N[C@@H](C)C(=O)N[C@@H](CCCCN)C(=O)N[C@@H](Cc1ccccc1)C(=O)N[C@@H](CCC(=O)O)C(=O)N[C@H](C(=O)N[C@@H](CC(N)=O)C(=O)N[C@@H](CC(N)=O)C(=O)N1CCC[C@H]1C(=O)N[C@@H](CCC(N)=O)C(=O)N[C@H](C(=O)N[C@@H](CCC(N)=O)C(=O)N[C@@H](CCCNC(=N)N)C(=O)N[C@@H](CCC(N)=O)C(=O)N[C@@H](C)C(=O)N[C@@H](Cc1ccccc1)C(=O)N[C@@H](CC(N)=O)C(=O)N[C@@H](CCC(=O)O)C(=O)N[C@@H](CC(C)C)C(=O)N[C@H](C(=O)N[C@@H](CCCNC(=N)N)C(=O)N[C@H](C(=O)N[C@H](C(=O)N[C@@H](Cc1c[nH]cn1)C(=O)N[C@@H](CCC(N)=O)C(=O)N[C@@H](CC(C)C)C(=O)N[C@@H](CC(C)C)C(=O)N1CCC[C@H]1C(=O)N[C@@H](CCC(=O)O)C(=O)N[C@@H](CO)C(=O)N[C@@H](CO)C(=O)N[C@@H](CC(C)C)C(=O)N[C@@H](CCCNC(=N)N)C(=O)N[C@@H](CCCCN)C(=O)N[C@@H](CCCNC(=N)N)C(=O)N[C@@H](CCCCN)C(=O)N[C@@H](CCCNC(=N)N)C(=O)N[C@@H](CO)C(=O)N[C@@H](CCCNC(=N)N)C(N)=O)C(C)C)C(C)C)[C@@H](C)CC)C(C)C)C(C)C [MuL] (Ac-K(Palmitoyl)AKFEVNNPQVQRQAFNELIRVVHQLLPESSLRKRKRSR-NH2) |  |  |  | cytotoxic |  |  |  |  |  |  |  |  |  |  |  |
| MuS: non-lipid scrambled analogue of the Mu peptide (PSRENQNAVKIQKLSVVLRREQKHRVERLAFRNQSLPF) |  |  |  |  | 6% | 8% | 3% | 1% | 3% | 1% | 14% | 9% | 8% | 5% |  |
| recombinant IFN-γ: recombinant interferon-gamma cytokine used as reference |  |  |  |  |  |  |  |  |  |  |  |  |  |  | stimulation time at which induction of class II CMH molecules is at a maximum (P388D1; cell lines of Table 8): 48 h |
| Mu: non-lipid peptide: sequence delimited by the amino acids in positions 95 and 132 of the murine IFN-γ peptide sequence (AKFEVNNPQVQRQAFNELIRVVHQLLPESSLRKRKRSR; listed as Mus sp.) | 53% | inactive | inactive |  | 13% | 8% | 3% | 1% | 12% | 1% | 5% | 12% | 7% | 8% | helical (ordered) conformation by CD ([1]; 50% trifluoroethanol): 65%; induction of the expression of HLA-DR [5]: no activity; % HLA-DR ([5]; 24 hours, flow cytometry): 1.2% |
| L-mIFN-γ 113-132: fragment 113-132 of murine IFNγ, carboxamide end, N-terminal Ac-K(Pam) group (Ac-K(Palmitoyl)IRVVHQLLPESSLRKRKRSR-NH2; SMILES CCCCCCCCCCCCCCCC(=O)NCCCC[C@H](NC(C)=O)C(=O)N[C@H](C(=O)N[C@@H](CCCNC(=N)N)C(=O)N[C@H](C(=O)N[C@H](C(=O)N[C@@H](Cc1c[nH]cn1)C(=O)N[C@@H](CCC(N)=O)C(=O)N[C@@H](CC(C)C)C(=O)N[C@@H](CC(C)C)C(=O)N1CCC[C@H]1C(=O)N[C@@H](CCC(=O)O)C(=O)N[C@@H](CO)C(=O)N[C@@H](CO)C(=O)N[C@@H](CC(C)C)C(=O)N[C@@H](CCCNC(=N)N)C(=O)N[C@@H](CCCCN)C(=O)N[C@@H](CCCNC(=N)N)C(=O)N[C@@H](CCCCN)C(=O)N[C@@H](CCCNC(=N)N)C(=O)N[C@@H](CO)C(=O)N[C@@H](CCCNC(=N)N)C(N)=O)C(C)C)C(C)C)[C@@H](C)CC) |  | marked dose-dependent increase | marked dose-dependent increase | not cytotoxic |  |  |  |  |  |  |  |  |  |  | increase in the expression of class II CMH molecules (murine splenocytes; 50 μM, splenocytes freshly obtained from mice): 13 fold; factor of increase of the expression of IA^b (murine splenocytes; 100 μM (280 μg/ml), murine cells): 18; increase in the expression of HLA-DR (COLO 205 human cell line; 50 μM, human cells): 10 fold; increase in the expression of HLA-DR (COLO 205 human cell line; 75 μM (210 μg/ml), human cell lines): 15 fold |
